Experiments:
Settings in all cases: 48 h
[1] = system: NOMO1; experiment: cell viability relative to DMSO control; higher = less cytotoxic
Procedure, shortened: (§1)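 Before seeding, each leukemia line was adapted for at least four passages in each medium. NOMO1 or SEM cells (500 cells/well) and P12-Ichikawa cells (1000 cells/well) went into 1536-well plates at 5 μl, then received library compounds in DMSO by pin dosing across 11 threefold concentrations, 47 μM to 0.79 nM. Readout was CellTiter-Glo One luminescence after 48 h at 37°C, and viability is given as a per-plate percentage of DMSO wells, with cell-free wells as background.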

[2] = system: P12-Ichikawa; experiment: as above
Procedure, shortened: as §1

[3] = system: SEM cells; experiment: as above
Procedure, shortened: as §1

[4] = system: NOMO1; experiment: AUC of viability dose-response curve (% viability x log10 dose units); higher = less sensitive
Procedure, shortened: (§2)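 Leukemia cells adapted to each medium were seeded at 500 or 1000 cells/well in 1536-well plates and dosed with library compounds in DMSO at 11 threefold doses from 47 μM to 0.79 nM for 48 h at 37°C. CellTiter-Glo One luminescence was normalised per plate to DMSO and cell-free wells, then fitted with a four-parameter log-logistic model over log10 doses. Area under the curve was taken from this fit by the trapezoidal rule, with curves above full viability scaled and curves failing quality control removed.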

[5] = system: P12-Ichikawa; experiment: as above
Procedure, shortened: as §2

[6] = system: SEM cells; experiment: as above
Procedure, shortened: as §2

C[C@](O)(COc1ccc(C#N)cc1)C(=O)Nc1ccc(C#N)c(C(F)(F)F)c1
cell viability [%]
Settings	[1]	[2]	[3]
HPLM + 10% dialyzed FBS, 0.000781 µM	83.2	85.2	70.4
HPLM + 10% dialyzed FBS, 0.00234 µM	81.5	81.8	77
HPLM + 10% dialyzed FBS, 0.00702 µM	81.2	93	90.7
HPLM + 10% dialyzed FBS, 0.0211 µM	95.6	94.8	84.9
HPLM + 10% dialyzed FBS, 0.0632 µM	90.1	99.2	91.3
HPLM + 10% dialyzed FBS, 0.19 µM	99.1	93.2	95.5
HPLM + 10% dialyzed FBS, 0.569 µM	90.4	102	87
HPLM + 10% dialyzed FBS, 1.71 µM	96	93.9	84.4
HPLM + 10% dialyzed FBS, 5.12 µM	88.6	89.7	90.5
HPLM + 10% dialyzed FBS, 15.4 µM	97	94.6	21.9
HPLM + 10% dialyzed FBS, 46.1 µM	71.2	95.3	89.6
RPMI 5 mM glucose + 10% FBS, 0.000781 µM	72.8	77.6	84.9
RPMI 5 mM glucose + 10% FBS, 0.00234 µM	93.8	84.4	70.4
RPMI 5 mM glucose + 10% FBS, 0.00702 µM	94.4	84.3	99.6
RPMI 5 mM glucose + 10% FBS, 0.0211 µM	85.4	94.1	104
RPMI 5 mM glucose + 10% FBS, 0.0632 µM	96.2	83.8	90.5
RPMI 5 mM glucose + 10% FBS, 0.19 µM	95.3	92.2	93
RPMI 5 mM glucose + 10% FBS, 0.569 µM	103	89	102
RPMI 5 mM glucose + 10% FBS, 1.71 µM	96.2	86.7	87.3
RPMI 5 mM glucose + 10% FBS, 5.12 µM	88.8	83.9	103
RPMI 5 mM glucose + 10% FBS, 15.4 µM	92.8	91	14.7
RPMI 5 mM glucose + 10% FBS, 46.1 µM	75.9	80.5	39.5
RPMI 5 mM glucose + 10% dialyzed FBS, 0.000781 µM	75.5	80.9	83
RPMI 5 mM glucose + 10% dialyzed FBS, 0.00234 µM	88.7	82.6	81.6
RPMI 5 mM glucose + 10% dialyzed FBS, 0.00702 µM	86.8	78.6	91.9
RPMI 5 mM glucose + 10% dialyzed FBS, 0.0211 µM	98.3	81.6	91.5
RPMI 5 mM glucose + 10% dialyzed FBS, 0.0632 µM	92.5	83.6	95.6
RPMI 5 mM glucose + 10% dialyzed FBS, 0.19 µM	97.2	76.1	107
RPMI 5 mM glucose + 10% dialyzed FBS, 0.569 µM	95.2	82.4	97.6
RPMI 5 mM glucose + 10% dialyzed FBS, 1.71 µM	102	80.7	93.9
RPMI 5 mM glucose + 10% dialyzed FBS, 5.12 µM	85.2	77.5	91
RPMI 5 mM glucose + 10% dialyzed FBS, 15.4 µM	92.4	82.1	20.1
RPMI 5 mM glucose + 10% dialyzed FBS, 46.1 µM	78.8	68.8	49.7

AUC of viability dose-response curve
Settings	[4]	[5]	[6]
HPLM + 10% dialyzed FBS	422	445	388
RPMI 5 mM glucose + 10% FBS	435	413	396
RPMI 5 mM glucose + 10% dialyzed FBS	433	382	400

C[C@]\12CC[C@H](O)CC1=C/CC3C2CC[C@@]\4(C)C3C\C=C4[N]5C=NC6=C5C=CC=C6 (stereo partly specified)
cell viability [%]
Settings	[1]	[2]	[3]
HPLM + 10% dialyzed FBS, 0.000781 µM	95.5	94.2	90.4
HPLM + 10% dialyzed FBS, 0.00234 µM	110	95.5	82.4
HPLM + 10% dialyzed FBS, 0.00702 µM	99.5	102	99.7
HPLM + 10% dialyzed FBS, 0.0211 µM	96.7	106	103
HPLM + 10% dialyzed FBS, 0.0632 µM	105	103	61.4
HPLM + 10% dialyzed FBS, 0.19 µM	115	105	97.7
HPLM + 10% dialyzed FBS, 0.569 µM	117	105	109
HPLM + 10% dialyzed FBS, 1.71 µM	102	104	115
HPLM + 10% dialyzed FBS, 5.12 µM	97	107	109
HPLM + 10% dialyzed FBS, 15.4 µM	116	106	114
HPLM + 10% dialyzed FBS, 46.1 µM	110	107	101
RPMI 5 mM glucose + 10% FBS, 0.000781 µM	96.4	82.9	96.1
RPMI 5 mM glucose + 10% FBS, 0.00234 µM	99	94.2	93.3
RPMI 5 mM glucose + 10% FBS, 0.00702 µM	100	93.8	101
RPMI 5 mM glucose + 10% FBS, 0.0211 µM	103	112	121
RPMI 5 mM glucose + 10% FBS, 0.0632 µM	112	107	96.6
RPMI 5 mM glucose + 10% FBS, 0.19 µM	109	106	97
RPMI 5 mM glucose + 10% FBS, 0.569 µM	117	105	109
RPMI 5 mM glucose + 10% FBS, 1.71 µM	101	105	115
RPMI 5 mM glucose + 10% FBS, 5.12 µM	99.2	102	117
RPMI 5 mM glucose + 10% FBS, 15.4 µM	125	99.5	113
RPMI 5 mM glucose + 10% FBS, 46.1 µM	100	98.5	104
RPMI 5 mM glucose + 10% dialyzed FBS, 0.000781 µM	84.8	89.6	99.8
RPMI 5 mM glucose + 10% dialyzed FBS, 0.00234 µM	101	97.4	88.9
RPMI 5 mM glucose + 10% dialyzed FBS, 0.00702 µM	97.3	103	106
RPMI 5 mM glucose + 10% dialyzed FBS, 0.0211 µM	124	108	115
RPMI 5 mM glucose + 10% dialyzed FBS, 0.0632 µM	110	103	102
RPMI 5 mM glucose + 10% dialyzed FBS, 0.19 µM	122	102	103
RPMI 5 mM glucose + 10% dialyzed FBS, 0.569 µM	117	103	108
RPMI 5 mM glucose + 10% dialyzed FBS, 1.71 µM	113	100	119
RPMI 5 mM glucose + 10% dialyzed FBS, 5.12 µM	104	107	109
RPMI 5 mM glucose + 10% dialyzed FBS, 15.4 µM	105	104	109
RPMI 5 mM glucose + 10% dialyzed FBS, 46.1 µM	112	102	112

AUC of viability dose-response curve
Settings	[4]	[5]	[6]
HPLM + 10% dialyzed FBS	461	469	428
RPMI 5 mM glucose + 10% FBS	454	465	455
RPMI 5 mM glucose + 10% dialyzed FBS	461	470	466
